Results on one compound are retold here after paper PMC4919643, “Intestinally-targeted TGR5 agonists equipped with quaternary ammonium have an improved hypoglycemic effect and reduced gallbladder filling effect” (Scientific Reports, 2016).

Data set [1] is described as follows: Solubility in water determined by LC-MS/MS. It counts as physicochemical.
Data set [2] relates to ICR mice. Description: Oral glucose tolerance test (OGTT) in ICR mice. It counts as in vivo, mouse. Here is the method:
Blood glucose levels were measured berefore and after glucose loading. *p < 0.05, **p < 0.01 vs. control. Error bar indicateds SEM (standard error of the mean). […]
Oral glucose tolerance test (OGTT) and gallbladder filling assay in ICR mice. 100 […]
mice (n = 7-8) 90 min prior to the oral glucose load (4 g/kg). Blood glucose levels were measured via blood drops obtained by clipping the tail of the mice using an Accu-Chek Advantage II Glucose Monitor (Roche, Indianapolis, IN, USA) before compound dosing and 0, 15, 30, 60, and 120 min after the glucose load. The area under the concentration−time curve from 0 to 120 min (AUC0−120 min, Glu) of blood glucose after the glucose load was calculated by the trapezoidal rule. […]

The test system of data set [3] is ob/ob mice. Description: Acute efficacy (blood glucose) in ob/ob mice. It counts as in vivo, mouse. The settings on record: 100 mg/kg p.o. single dose. The method, then:
Mice were refed at 6 h after dosing. *p < 0.05, **p < 0.01 vs. control. Error bar indicates SEM.
(§1) Acute efficacy in ob/ob mice. 7-week-old ob/ob mice (male) were divided into three groups (n = 8) based on 2 h-fasted blood glucose. […]
mg/kg) and 0.25% CMC (control) was then orally administered to 2 h-fasted mice, and blood glucose was measured at 2, 4, 6, 8, 10, and 24 h after dosing. The animals were refed at 6 h after dosing.
GLP-1 secretion in ob/ob mice. The ob/ob mice (female) were divided into 4 groups and […]
then divided into 3 subgroup of different time point (n = 8-9 each subgroup). All the animals were fasted for 6 hours before collecting blood samples at the indicated time points. At other times, animals were free accessed to water and food. […] Concentrations of active GLP-1[7-36 amide] in the serum were measured using ELISA kit from Linco Research. […]
(§2) administered to 12 h-fasted ob/ob mice (n = 3 per time point). […] After centrifugation at 11000 rpm for 5 mins, the supernatant was analyzed by LC-MS/MS. […]
administered orally to overnight-fasted ob/ob mice (male, n = 3-6). 1 h after dosing, mice were refed for 3 hours, and then gallbladders were removed, and the area was measured using vernier caliper. The relative gallbladder area was calculated from the length multiplied by the width of the gallbladder. The bile weight was measured using […]

The subject of data set [4] is ob/ob mice. Description: Gallbladder filling assay in ob/ob mice. It counts as in vivo, mouse. The settings on record: once a day oral dose 100 mg/kg (single dose). The method, then: Figure 8 (A) Relative gallbladder area and (B) relative bile weight after once a day oral dose or 3-day treatment. […] 1 h after the final dose, mice were re-fed for 3 h and then the gallbladder was removed and the area measured using a vernier caliper. The relative gallbladder area was calculated from the length multiplied by the width of the gallbladder. Bile weight was measured using analytical balances. **p < 0.01; ***p < 0.001. Error bar indicates SEM.
as §1
mg/kg) and 0.25% CMC (control) was then orally administered to 2 h-fasted mice, and blood glucose was measured at 2, 4, 6, 8, 10, and 24 h after dosing. […]
then divided into 3 subgroup of different time point (n = 8-9 each subgroup). […] Concentrations of active GLP-1[7-36 amide] in the serum were measured using ELISA kit from Linco Research. […]
as §2
administered orally to overnight-fasted ob/ob mice (male, n = 3-6). 1 h after dosing, mice were refed for 3 hours, and then gallbladders were removed, and the area was measured using vernier caliper. The relative gallbladder area was calculated from the length multiplied by the width of the gallbladder. […]

Data set [5] has as its system ob/ob mice. Description: Long-term (18-day) study in ob/ob mice. The class given is in vivo, mouse. The settings on record: for decrease of HbA1c level on day 18: 18 days; for HbA1c, signed change vs control (Fig. 9C): day 18.
The target in data set [6] is T1, farnesyl X receptor (FXR) (Homo sapiens, UniProt Q96RI1).
T1 sequence (Q96RI1 262-486 limits assumed): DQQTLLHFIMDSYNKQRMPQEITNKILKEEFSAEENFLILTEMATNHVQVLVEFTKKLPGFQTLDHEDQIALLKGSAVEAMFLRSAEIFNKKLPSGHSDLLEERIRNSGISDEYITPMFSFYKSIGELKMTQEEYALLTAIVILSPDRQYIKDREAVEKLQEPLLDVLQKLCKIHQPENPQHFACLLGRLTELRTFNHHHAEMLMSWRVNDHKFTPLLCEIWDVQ
Description: FXR assay (LanthaScreen TR-FRET coactivator assay).

Data set [7] has as its target T2, mouse TGR5 (Mus musculus, UniProt Q80SS6).
T2 sequence (Q80SS6 1-329): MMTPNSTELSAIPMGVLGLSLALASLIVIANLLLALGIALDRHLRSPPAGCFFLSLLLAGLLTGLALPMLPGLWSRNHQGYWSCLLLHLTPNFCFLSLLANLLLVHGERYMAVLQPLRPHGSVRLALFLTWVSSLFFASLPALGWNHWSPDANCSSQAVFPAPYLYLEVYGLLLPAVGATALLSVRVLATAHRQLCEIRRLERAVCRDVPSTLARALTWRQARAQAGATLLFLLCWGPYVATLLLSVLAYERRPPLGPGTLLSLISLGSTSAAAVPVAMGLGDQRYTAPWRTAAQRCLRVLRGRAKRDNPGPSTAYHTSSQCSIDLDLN
Description: In vitro TGR5 reporter gene assay (mTGR5/CRE/HEK293). Background: A reporter such as luciferase makes a cellular process visible.

The mark [8] stands for this setting: 100 mg/kg p.o., after 18-day treatment.
[9] abbreviates: 18-day treatment, 50 or 100 mg/kg p.o., dose-dependent.
Setting [10] is: 18-day treatment, data not shown.

pEC50: −log10 of the molar value.

`CN(CC[N+](C)(C)C)C(=O)CCc1cc(Cl)c(Oc2ccsc2C(=O)N2CCN(C3CC3)c3ccccc32)cc1Cl` [Compound 26a] had a solubility in data set [1] of 1800 µg/mL. The “AUC0–120 min of blood glucose, signed change vs control (OGTT, Fig. 3B)” value in data set [2] (100 mg/kg p.o.) is on record as -18%. In data set [2] (100 mg/kg p.o. 1.5 h before glucose 4 g/kg), the “decrease of blood glucose AUC vs control (OGTT)” value stood at 18%. The “time post-dosing until which glucose-lowering effect was maintained” value in data set [3] is reported as “at least 24 h”. In data set [4], the “bile weight vs control” value was “did not increase gallbladder area or bile weight significantly” and the “gallbladder area vs control” value is given as “did not increase gallbladder area or bile weight significantly”. Moreover, the “decrease of HbA1c level on day 18” value in data set [5] (50 mg/kg p.o., not significant) came out at 0.48%. Moreover, in data set [5] (50 mg/kg p.o., after 18-day treatment), the “triglyceride, signed change vs control (Fig. 9D)” value is given as -7.2%. For the same compound, in data set [5] (50 mg/kg p.o.), the “HbA1c, signed change vs control (Fig. 9C)” value was -0.48%. In data set [5] (100 mg/kg p.o., significant), the “decrease of HbA1c level on day 18” value is given as 0.94%. Also, in data set [5] (setting [8]), the “decrease of triglyceride level” value was found to be 22% and the “triglyceride, signed change vs control (Fig. 9D)” value is listed as -22%. Also, the “HbA1c, signed change vs control (Fig. 9C)” value in data set [5] (100 mg/kg p.o.) was -0.94%. The “body weight of mice” value in data set [5] (18-day treatment) is listed as “not affected”. Further, the “significant change in levels of total cholesterol” value in data set [5] (18-day treatment, 50 or 100 mg/kg p.o.) was “not observed”. In data set [5] (setting [9]), the fasting blood glucose result is on record as “decreased dramatically” and the non-fasting blood glucose result is given as “decreased dramatically”. Further, in data set [5] (setting [10]), the “level of alanine aminotransferase” value is “No significant changes”, the “level of alkaline phosphatase” value is given as “No significant changes”, the “level of aspartate aminotransferase” value is on record as “No significant changes” and the “level of total bilirubin” value is reported as “No significant changes”. Further, in data set [6], the “concentration up to which activation of FXR was not observed” value is over 100 µM. The same compound gave a negative logarithm of the EC50 (pEC50) in data set [7] of 9.15.

By solubility is commonly meant how much of the substance goes into solution per volume. In general, pEC50 refers to −log10 of the EC50, conventionally taken in molar units. Lower therefore signals a large EC50.
